Two compounds from US20260200902A1, “CRYSTALLINE FORMS OF 7-CHLORO-2-(4-(3-METHOXYAZETIDIN-1-YL)CYCLOHEXYL)-2,4- DIMETHYL-N-((6-METHYL-4-(METHYLTHIO)-2-OXO-1,2-DIHYDROPYRIDIN-3-YL)METHYL)BENZO [D][1,3]DIOXOLE-5-CARBOXAMIDE” (Constellation Pharmaceuticals, Inc., priority 2019, published 2026) can be followed below.

Format in all cases: physicochemical
The nature of data set [1]: Static stability storage at elevated RH (5 days), XRPD and HPLC. The conditions noted are these: for Solid form by XRPD after storage: stored for 5 days at elevated RH conditions.
Data set [2] is described as follows: Gravimetric vapour sorption (GVS) analysis. The settings on record: for XRPD post GVS (solid form): after GVS analysis.
A short description of data set [3]: Relative stability of crystalline forms (polymorph screening and competitive slurry experiments). The settings on record: Form 1 versus Form 2. The protocol:
The amorphous form of Compound 1 samples with different purities, one with 95.2% purity (30 mg) and another with 97.6% purity (20 mg), were each suspended or dissolved in 10-30 vol of a given solvent at RT. After 5 m n equilibration at RT, all samples (solutions and suspensions) were heated to 50° C. for 10 minutes and the resulting samples were treated as follows: Suspensions were matured between 60 and 5 FC for 72 hrs (4 hrs at each temperature). Solutions were cooled from 50 to 5° C. at 0.1° C./min and maintained at 5° C. for 72 hrs. If no solid was obtained, the solutions were allowed to evaporate at RT. All the recovered solids were analyzed by XRPD and subsequently by the appropriate techniques. See Tables 1-3 for screening procedures and analytical results.

“Also recorded” adds a separate entry of the source.

For `COC1CN(C2CCC(C3(C)Oc4c(Cl)cc(C(=O)NCc5c(SC)cc(C)[nH]c5=O)c(C)c4O3)CC2)C1` (centres unmarked) [Form 2, 7-chloro-2-(4-(3-methoxyazetidin-1-yl)cyclohexyl)-2,4-dimethyl-N-((6-methyl-4-(methylthio)-2-oxo-1,2-dihydropyridin-3-yl)methyl)benzo[d][1,3]dioxole-5-carboxamide], the “Solid form by XRPD after storage” value in data set [1] is given as “became amorphous”. Besides, in data set [2], the “XRPD post GVS (solid form)” value is reported as “became amorphous”. For the same compound, the “Relative stability of crystalline form” value in data set [3] is reported as “less stable crystalline form than Form 1”.
`COC1CN(C2CCC(C3(C)Oc4c(Cl)cc(C(=O)NCc5c(SC)cc(C)[nH]c5=O)c(C)c4O3)CC2)C1` (centres unmarked) [Form 1, 7-chloro-2-(4-(3-methoxyazetidin-1-yl)cyclohexyl)-2,4-dimethyl-N-((6-methyl-4-(methylthio)-2-oxo-1,2-dihydropyridin-3-yl)methyl)benzo[d][1,3]dioxole-5-carboxamide]: in data set [1] (25° C./97% RH (5 days)), the “Static stability, HPLC” value was determined as 96.8% and the “Static stability, XRPD” value is reported as “XRPD: Slight reduction in crystallinity,; also recorded: remained pattern 1”. For the same compound, in data set [1] (40° C./75% RH (5 days)), the “Static stability, HPLC” value was found to be 96.5% and the “Static stability, XRPD” value is listed as “XRPD: Slight reduction in crystallinity,; also recorded: remained pattern 1”. Moreover, the “Solid form by XRPD after storage” value in data set [1] was “remained Form 1”. Also, in data set [2], the “Hygroscopicity by GVS analysis” value is “slightly hygroscopic” and the “XRPD post GVS (solid form)” value is given as “remained Form 1; also recorded: showed the material remained Pattern 1”. Also, the “Relative stability of crystalline form” value in data set [3] is reported as “more stable than Form 2”.
